Measured values published in publication PMC6662706, “Short amylin receptor antagonist peptides improve memory deficits in Alzheimer’s disease mouse model” (Scientific Reports, 2019).
No end group written: not given here.

Key:
AMY3 receptor = target: T1, AMY3 receptor (Homo sapiens, UniProt O60896+P30988); assay: Block of hAmylin-evoked cAMP generation in HEK-AMY3 cells; type: cell-based; conditions: peptide 30 min then hAmylin 1 pM–10 µM 30 min, peptides 10 µM (Fig. 1E legend), 1 µM (supplement method)
T1 construct: expressed in transfected cells
T1 sequence (P30988 25-474): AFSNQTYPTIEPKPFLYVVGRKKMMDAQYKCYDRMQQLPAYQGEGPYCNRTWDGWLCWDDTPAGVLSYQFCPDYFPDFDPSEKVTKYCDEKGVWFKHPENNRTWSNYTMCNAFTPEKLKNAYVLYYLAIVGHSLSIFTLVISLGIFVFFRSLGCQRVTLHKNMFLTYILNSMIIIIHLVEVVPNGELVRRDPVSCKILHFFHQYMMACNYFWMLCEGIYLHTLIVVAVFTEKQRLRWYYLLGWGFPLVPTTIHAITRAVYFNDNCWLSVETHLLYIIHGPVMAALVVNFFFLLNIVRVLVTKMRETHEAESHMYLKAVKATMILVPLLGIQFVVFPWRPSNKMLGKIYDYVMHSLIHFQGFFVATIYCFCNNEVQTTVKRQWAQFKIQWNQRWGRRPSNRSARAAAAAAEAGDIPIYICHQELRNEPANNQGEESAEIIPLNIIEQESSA
T1 sequence (O60896 24-148): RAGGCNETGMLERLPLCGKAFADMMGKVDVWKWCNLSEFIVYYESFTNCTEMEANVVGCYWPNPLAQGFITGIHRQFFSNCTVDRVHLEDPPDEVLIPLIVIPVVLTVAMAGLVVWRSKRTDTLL
Text: Human amylin is a potent agonist at amylin receptor stimulating cAMP production in cells. In the first in vitro bioassay, we examined ability of R5 and R14 to block the hAmylin-evoked cAMP generation in HEK-AMY3 cells. R11 peptide served as a negative control. […] In a second in vitro assay, we examined whether peptides R5, and R14 could protect human fetal neurons (HFNs) and N2a (mouse neuroblastoma cell line) from Αβ1–42 induced cytotoxicity.
A shorter peptide library was derived from AC253 peptide sequence comprising 12–14 amino acid peptides. […] To determine the activity of these shorter peptides to block AMY3 receptor signaling, cellular cAMP levels (measured using a parameter cyclic AMP assay kit, R&D Systems) and phosphorylation ERK1/2 (Western blot) were measured. We assessed neuroprotective properties of the peptide fragments against Aβ cytotoxicity in vitro using the MTT assay in N2a cell line and human fetal neurons (HFNs), which were prepared from 12- to 15-gestational week fetuses with approval of the Human Ethics Research Board at the University of Alberta as previously reported[17],[19].
For cAMP measurements, HEK-AMY3 cells were plated on 24-well plates overnight. […] Cellular cAMP levels were measured using a parameter cyclic AMP assay kit (R&D Systems) according to the manufacturer’s instructions. […]

HEK-WT cells = assay: Flow cytometry cell binding and uptake of Cy5.5 labeled peptides, HEK-WT cells; type: cell-based, human; conditions: Cy5.5 labeled peptides 5 µM, 1 h, 37 °C
Procedure: Next, we labeled R5, R14 peptides with Cy5.5 to examine their in vitro binding efficacy and specificity compared with AC253 in HEK-AMY3 cells using flow cytometry and fluorescence microscopy (Fig. 1A,C).
For flow cytometry studies, HEK-AMY3 cells were used to determine cell binding and uptake and binding of Cy5.5 labeled AC253, and R5, R14, R11 fragments. Cell were plated at a density of 1.5 × 10^5 cells/well and cultured overnight in 12-well plates at 37 °C. Peptides (5 µM) were added and incubated for 1 h at 37 °C in serum free media. The culture media was then discarded, and cell monolayers were washed with PBS containing 2 mM EDTA and 0.5% BSA adjusted to pH 7.4 at 37°C, then cells were washed again with cold buffer and incubated with 0.25% trypsin to remove cell surface–associated fluorophores. Cells were then dispersed in FACS solution (10% FBS in PBS), and analyzed using a FACSCanto II flow cytometer (BD Biosciences, USA) selecting a detection window between 720 and 840 nm, and fluorescence histograms and dot plots were generated using FLOWJO software (Tree Star, Inc, USA). At least 10,000 gated events per sample were analyzed to develop the histogram. HEK-WT cells was used as negative control.

| Substance | block of hAmylin-evoked cAMP increases (AMY3 receptor) | binding and uptake in HEK-WT cells compared to HEK-AMY3 cells (HEK-WT cells) |
| --- | --- | --- |
| SQELHRLQTYPR-NH2 [R5] | blocked the cAMP increases in a dose-dependent manner | – |
| LGRLSQELHRLQTYPRTNTGSNTY-NH2 (C-terminus assumed) [AC253, reference compound] | inhibited | reduced binding and uptake |
